# Patent publication US20250127790A1, “COMBINATION THERAPY USING VPS34 INHIBITORS” (Deciphera Pharmaceuticals, LLC, priority 2021, published 2025)
# What was measured:
# [1] = test system: Renca renal cell carcinoma cells; assay: IncuCyte live-cell imaging, cell confluence, Renca cells; type: cell-based; conditions: 2 μM Compound 1, ADU-S100, up to 72 hours
# Method: Renca cells were treated with a combination of DMSO or 2 μM Compound 1 alone or in combination with STING agonist ADU-S100 for 24 hours. Treatment with 1 μM staurosporine was used as a positive control for apoptosis induction. To assess cell proliferation, 1000 cells/well were plated in 96-well plates. After 24 h, cells were treated with compounds in 100 μL complete medium. Phase-contrast images (10×) were acquired every 3 h for 24-72 h and cell confluence (%) was calculated using the IncuCyte S3 live-cell analysis system (Sartorius). For monitoring apoptosis, 5 μM of IncuCyte Caspase-3/7 Green Dye (#4440, Sartorius) was added to the medium at the time of treatment. Both phase-contrast and green fluorescent images were captured. Caspase 3/7 induction was calculated by counting green fluorescent objects per mm^2 and dividing it by the percentage of cell confluency.
# 4T1 breast cancer cells [2] = assay: qRT-PCR, combination with cGAMP, 4T1 cells; type: cell-based, Mouse; conditions: 24 hours, 5 μM Compound 1 or 10 μM Compound 2, 10 mg/ml cGAMP
# Method: (§1) 4T1 cells were treated for 24 hours with DMSO or VPS34 inhibitors (5 μM Compound 1 or 10 μM Compound 2) in combination with 10 mg/ml STING agonist cGAMP (green bars). Cells were washed with PBS and RNA was isolated using the PureLink RNA kit (#12183018A, Thermo Fisher Scientific) according to the manufacturer's protocol. Genomic DNA was removed using DNA-binding columns (RNeasy plus kit, #74134, Qiagen) and/or DNase treatment (#12185010, Thermo Fisher Scientific). RNA was quantified using NanoDrop (Thermo Fisher Scientific) and 50 ng/μL RNA was used for cDNA synthesis with SuperScript IV VILO Master Mix (#11756050, Thermo Fisher Scientific). Quantitative RT-PCR (qRT-PCR) was run with diluted cDNA (1:25 or 1:12.5), PowerUp SYBR Green Master Mix (#A25741, Thermo Fisher Scientific), and 200 nM primers (see below) on a CFX Connect RT-PCR system (BioRad). Data was analyzed using the ΔΔCT method. Results are mean±SEM of three independent experiments.
# [3] = test system: CT26 colorectal cancer cells; assay: qRT-PCR, combination with cGAMP, CT26 cells; type: cell-based, Mouse; conditions: 24 hours, 5 μM Compound 1 or 10 μM Compound 2, 10 mg/mL cGAMP
# Method: as §1, with “CT26” for “4T1”, “mg/mL” for “mg/ml”
# 4T1 breast cancer cells [4] = assay: Cytokine secretion assay, combination with cGAMP, 4T1 cells; type: cell-based, mouse; conditions: 24 hours, 5 μM Compound 1 or 10 μM Compound 2, 10 mg/ml cGAMP
# Method: as §1
# Cell culture medium was centrifuged at 1600 rpm for 10 min at 4° C. and obtained supernatant stored at −80° C. Cytokine levels were quantified using following Meso Scale Discovery (MSD) assays: mouse U-PLEX RANTES/CCL5 (#K152A2K) and U-PLEX IP-10/CXCL10 (#K152UFK). Assays were run on the SECTOR Quickplex Imager and analyzed using Discovery Workbench version 4.0 (MSD).
# [5] = test system: 786-O renal cell carcinoma cells; assay: Cytokine secretion assay (MSD) with siRNA knockdown, 786-O cells; type: cell-based, human; conditions: 24 h; for CCL5 and CXCL10 secretion with siRNA knockdown of CGAS: siCGAS; for CCL5 and CXCL10 secretion with siRNA knockdown of CGAS / increase in CCL5 protein secretion / increase in CXCL10 protein secretion / CCL5 and CXCL10 protein secretion with siRNA knockdown of STING: 2 μM; for CCL5 and CXCL10 secretion with siRNA knockdown of CGAS / CCL5 and CXCL10 protein secretion with siRNA knockdown of STING / secretion of CCL5 or CXCL10 with siRNA knockdown of TBK1: vs compound alone; for increase in CCL5 protein secretion / increase in CXCL10 protein secretion: siRNA against non-specific controls (siSCR); for CCL5 and CXCL10 protein secretion with siRNA knockdown of STING: siSTING; for secretion of CCL5 or CXCL10 with siRNA knockdown of TBK1: siTBK1, 2 μM
# Method: (§2) 786-O cells were transfected with scrambled siRNA control (siSCR) or siRNA targeting TBK1 (siTBK1), STING (siSTING) or CGAS (siCGAS). After 48 h cells were treated with DMSO or 2 μM of VPS34 inhibitor (Compound 1 or Compound 2) for 24 h. Cell culture medium was centrifuged at 1600 rpm for 10 min at 4° C. and obtained supernatant stored at −80° C. Cytokine levels were quantified using following Meso Scale Discovery (MSD) assays: human R-PLEX RANTES/CCL5 (#F21ZN), U-PLEX CXCL10/IP-10 (#K151UFK). Assays were run on the SECTOR Quickplex Imager and analyzed using Discovery Workbench version 4.0 (MSD).
# [6] = test system: A-498 renal cell carcinoma cells; assay: Cytokine secretion assay (MSD) with siRNA knockdown, A-498 cells; type: cell-based, human; conditions: 24 h; for CCL5 and CXCL10 secretion with siRNA knockdown of CGAS: siCGAS; for CCL5 and CXCL10 secretion with siRNA knockdown of CGAS / increase in CCL5 protein secretion / increase in CXCL10 protein secretion / CCL5 and CXCL10 protein secretion with siRNA knockdown of STING: 2 μM; for CCL5 and CXCL10 secretion with siRNA knockdown of CGAS / CCL5 and CXCL10 protein secretion with siRNA knockdown of STING / CCL5 or CXCL10 protein secretion with siRNA knockdown of TBK1: vs compound alone; for increase in CCL5 protein secretion / increase in CXCL10 protein secretion: siRNA against non-specific controls (siSCR); for CCL5 and CXCL10 protein secretion with siRNA knockdown of STING: siSTING; for CCL5 or CXCL10 protein secretion with siRNA knockdown of TBK1: siTBK1, 2 μM
# Method: as §2, with “A-498” for “786-O”
smiles,measurement,setting,value
"C[C@@H]1COCCN1c1cc(N2CCCC[C@@H]2C(F)(F)F)[nH]c(=O)c1 [Compound 1, 4-((R)-3-methylmorpholino)-6-((R)-2-(trifluoromethyl)piperidin-1-yl)pyridin-2(1H)-one]",cell confluence,[1],decreased
same,CCL5 mRNA expression,4T1 breast cancer cells [2],increased
same,CXCL10 mRNA expression,4T1 breast cancer cells [2],increased
same,CCL5 mRNA expression,[3],increased
same,CXCL10 mRNA expression,[3],increased
same,CCL5 protein secretion,4T1 breast cancer cells [4],increased
same,CXCL10 protein secretion,4T1 breast cancer cells [4],increased
same,CCL5 and CXCL10 secretion with siRNA knockdown of CGAS,[5],near complete ablation
same,increase in CCL5 protein secretion,[5],~2 fold
same,increase in CXCL10 protein secretion,[5],~2 fold
same,CCL5 and CXCL10 protein secretion with siRNA knockdown of STING,[5],near complete ablation
same,secretion of CCL5 or CXCL10 with siRNA knockdown of TBK1,[5],decreased secretion
same,CCL5 and CXCL10 secretion with siRNA knockdown of CGAS,[6],down to the levels of DMSO controls
same,increase in CCL5 protein secretion,[6],~2 fold
same,increase in CXCL10 protein secretion,[6],~2 fold
same,CCL5 and CXCL10 protein secretion with siRNA knockdown of STING,[6],down to the levels of DMSO controls
same,CCL5 or CXCL10 protein secretion with siRNA knockdown of TBK1,[6],non-significant changes
"C[C@@H]1COCCN1c1cc(=O)n2c(n1)N(Cc1cncc(Cl)c1)[C@H](C(F)(F)F)CC2 [Compound 2, (S)-9-((5-chloropyridin-3-yl)methyl)-2-((R)-3-methylmorpholino)-8-(trifluoromethyl)-6,7,8,9-tetrahydro-4H-pyrimido[1,2-a]pyrimidin-4-one]",CCL5 mRNA expression,4T1 breast cancer cells [2],increased
same,CXCL10 mRNA expression,4T1 breast cancer cells [2],increased
same,CCL5 mRNA expression,[3],increased
same,CXCL10 mRNA expression,[3],increased
same,CCL5 protein secretion,4T1 breast cancer cells [4],increased
same,CXCL10 protein secretion,4T1 breast cancer cells [4],increased
same,CCL5 and CXCL10 secretion with siRNA knockdown of CGAS,[5],near complete ablation
same,increase in CCL5 protein secretion,[5],~2 fold
same,increase in CXCL10 protein secretion,[5],~2 fold
same,CCL5 and CXCL10 protein secretion with siRNA knockdown of STING,[5],near complete ablation
same,secretion of CCL5 or CXCL10 with siRNA knockdown of TBK1,[5],decreased secretion
same,CCL5 and CXCL10 secretion with siRNA knockdown of CGAS,[6],down to the levels of DMSO controls
same,increase in CCL5 protein secretion,[6],~2 fold
same,increase in CXCL10 protein secretion,[6],~2 fold
same,CCL5 and CXCL10 protein secretion with siRNA knockdown of STING,[6],down to the levels of DMSO controls
same,CCL5 or CXCL10 protein secretion with siRNA knockdown of TBK1,[6],non-significant changes
"Nc1ncnc2c1ncn2[C@@H]1O[C@@H]2COP(=O)([S-])O[C@@H]3[C@H](O)[C@@H](COP([O-])(=S)O[C@H]2[C@H]1O)O[C@H]3n1cnc2c(N)ncnc21.[Na+].[Na+] (stereo partly shown) [ADU-S100, reference compound]",cell confluence,[1],no effect
